Four molecules from paper PMC12851007 (Angewandte Chemie (International Ed. in English), 2025) can be followed below.

The format of assay [1] is binding. The settings on record: LCG displacement in 10 mM Hepes, pH 7.0, 25 °C; fluorescence; error = SD of nonlinear fit, n = 1. The method, then:
Fluorescence titrations were performed as previously described and the resulting titration curves we re an al yz ed usi ng established pro cedur es . Competitive titrations were eithe r anal yz ed with a fitting function assuming 1:1 host-competitor complexes[3] or with a fitting function involving hi gher complex es with more than on e h ost bound per peptide.[4] In the latter c ase, an identical binding affinity is assumed for all binding sites. […]
Figure S1. a) Fluorescence titration of 0.5 µM LCG ( λex = 369 n m) with varying concentrations of CX4 in 10 mM Hepes, pH 7.0, 25 °C .b) Respective titration curve ( λem = 502 nm) with fitted line . […]
Figure S2. a) Competitive fluorescence titration wit h 0.5 µM LCG, 1 µM CX4 ( λex = 369 nm) and varying concentrations of penetratin in 10 mM Hepes, pH 7.0, 25 °C . b) Respective titration c ur ve (λem = 502 nm) with fitted line .
(also on this page, place not known: analyzed using procedures. were either analyzed host -competitor higher complexes one host case, 700 Intensity Intensity (λex °C. line. 650 0 Intensity 0 Intensity b) curve (λem nm) with line.)

Assay [2] is described as follows: CX4/LCG supramolecular tandem membrane assay, POPC vesicles. Type of assay: in vitro ADME. Conditions: n = 1; for EC50: pH 7.5, error = SD of fit; for Y30µM, membrane activity, CX4/LCG assay: 30 µM peptide, 25 µM POPC⸧CX4/LCG-LUVs (inside 700 µM CX4, 500 µM LCG) in 10 mM Hepes, pH 7.0, 25 °C, fluorescence λexc 369/λem 502 nm, peptide at 60 s, TX-100/protamine at 600 s, fractional activity. The procedure:
Membrane Activity M easurements
Vesicle preparation. 100 µ L of a solution of 25 mg/ml of POPC in chloroform or 200 µ L of a solution of 25 mg/ml of EYPC in chloroform was purged with nitrogen and dried overnight under hi gh vacuum. The thin lipid film was rehydrated with 1 ml reh ydrati on buffer (= inside buffer, see Tabl e S2 ) b y agitation at room temperature for 30min and then subjected to 2 0 freeze- th aw c ycles (freezing in liquid nitro gen and thawing at 40 °C). […]
Ta b l e S 2. Combinations of lipids and inside and outside buffer for CX4/LCG -LUVs.
No. Lipid Inside buffer = rehydration buffer Outside buffer
(4) POPC 10 mM Hepes, 700 µM CX4, 500 µM LCG, 10 mM Hepes buffer, 175 mM glucose, pH 7.5 [a] 175 mM glucose, pH 7.5 [a]
[a] Glucose b uffers (183 mOsm/L at 25 °C) were used within one week after preparation.
Vesicle quality control. T o ensure the absence of the CX4/ LCG reporter pair in the ex travesicular ph ase, 20 µL of the collected liposome fr action w as diluted to 2 ml with outside buffer and the fluor escen ce (λ exc = 369 nm; λ em = 502 nm) was recorded during the addition of […]
The final lipid content in the liposome suspension after p repa rat ion and separ ation was d etermined b y NMR as p reviousl y reported. Assay protocol. An appropriate volume of the liposome stock solutions was diluted to 2m L with outside buffer in a 10 ×10 mm quartz glass cuvette to afford a phospholipid concentration of 25 µM. The cuvette was placed into a thermostatted fluorimeter sample holder at 25.0 °C and gentl y stirred at 300 rpm. Subsequently, the time-dependent change in fluorescence intensity (λ exc = 369 nm; λ em = 502 nm) was record ed during addition of 20 µ L of peptide stock solutions of varying concentrations at 60 s. At 600 s, 20µ L o f a solution containing 1.6% (wt/vol) TX-100 and 1.5 mM protamine was added for calibration to affo rd 0.016% (wt/vol) TX-100 and 15 µM protamine final concent rations.
Time-dep endent fluores cence intensit y traces, I (t), were subsequentl y normalized to fractional intensities, If(t), using equation (1). Therein, I 0 is the intensity just before addition of peptide and I ∞ is the constant intensit y after addition of the calibration cockt ail.
IIf (tt ) = II (tt )−II0II∞ − II0 (1)
The concentration-dependent fractional intensities just before the addition of the calibration cocktail, If, were then normalized to fractional membrane activities, Y, using equation (2).
Therein, If,0 is the fractional intensit y just before addition of the calibration cocktail in absence of peptide and I f,∞ is the constant fractional intensity after addition of the calibration cocktail.
YY = IIf − IIf,0IIf,∞ − IIf,0 (2)
The fractional membrane activities, Y, were subsequently plotted against the peptide concentration, c, and analysed using the Hill equation (3) to obtain the effective molar concentration, EC50, and the Hill coefficient, n. Y0 and Y ma x are the fractional membrane activities in absen ce o f p eptide and at max imal peptide concent rations. For peptides with too little activity to determine Y ma x ex perimentall y, Y max was fixed at 1.0 during fitting. […]

[3] abbreviates: 25 µM lipid, POPC⊃CX4/LCG-LUVs, 10 mM Hepes, fractional activity at 590 s, Hill fit, read-out: EC50, CX4/LCG assay, POPC.
The mark [4] stands for this setting: single-channel, 25 µM POPC⸧CX4/LCG-LUVs, inside 10 mM Hepes, 700 µM CX4, 500 µM LCG, 175 mM glucose, outside 10 mM Hepes, 175 mM glucose, read-out: EC50, CX4/LCG assay in glucose-containing buffer.

Like-named read-outs stand apart in the source and are kept apart here. Where a SMILES comes first, the peptide text is derived from it.

Consider `CC[C@H](C)[C@H](NC(=O)[C@H](CCCCN)NC(=O)[C@@H](NC(=O)[C@@H](N)CCC(N)=O)[C@@H](C)CC)C(=O)N[C@@H](Cc1c[nH]c2ccccc12)C(=O)N[C@@H](Cc1ccccc1)C(=O)N[C@@H](CCC(N)=O)C(=O)N[C@@H](CC(N)=O)C(=O)N[C@@H](CCCNC(=N)N)C(=O)N[C@@H](CCCNC(=N)N)C(=O)N[C@@H](CCSC)C(=O)N[C@@H](CCCCN)C(=O)N[C@@H](Cc1c[nH]c2ccccc12)C(=O)N[C@@H](CCCCN)C(=O)N[C@@H](CCCCN)C(=O)O` (H-QIKIWFQNRRMKWKK-OH), for which the “K a, binding constant of peptide to CX4” value in assay [1] is recorded as “(9.9 ± 1.8) × 10^7 M^−1”. In addition, the figures for the EC50 in assay [2] (setting [3]) and in assay [2] (setting [4]) were 70 ± 13 µM and 140 ± 40 µM, respectively. For the same molecule, the “Y30µM, membrane activity, CX4/LCG assay” value in assay [2] is listed as 0.49.
On to `CC(C)C[C@H](NC(=O)[C@H](CC(C)C)NC(=O)[C@H](CCCNC(=N)N)NC(=O)[C@@H](N)CC(C)C)C(=O)N[C@@H](CCCNC(=N)N)C(=O)N[C@@H](Cc1c[nH]c2ccccc12)C(N)=O` [LRLLRW] (H-LRLLRW-NH2), for which the “K a, binding constant of peptide to CX4” value in assay [1] is given as “(1.3 ± 0.1) × 10^6 M^−1”. In assay [2], the “Y30µM, membrane activity, CX4/LCG assay” value is 0.53. Also, the EC50 in assay [2] (setting [4]) was 14 ± 2 µM.
On to `CC(C)[C@H](NC(=O)[C@H](CCCCN)NC(=O)[C@H](CCCNC(=N)N)NC(=O)[C@H](CCCCN)NC(=O)[C@H](CCCCN)NC(=O)[C@H](CCCCN)NC(=O)[C@@H]1CCCN1C(=O)[C@H](CCC(N)=O)NC(=O)[C@H](CO)NC(=O)[C@H](Cc1c[nH]c2ccccc12)NC(=O)[C@H](CC(=O)O)NC(=O)[C@@H](NC(=O)[C@H](Cc1c[nH]c2ccccc12)NC(=O)[C@H](Cc1c[nH]c2ccccc12)NC(=O)[C@@H](NC(=O)[C@H](CC(=O)O)NC(=O)[C@H](Cc1c[nH]c2ccccc12)NC(=O)[C@H](Cc1c[nH]c2ccccc12)NC(=O)[C@@H](NC(=O)[C@H](CC(=O)O)NC(=O)[C@@H](N)CCCCN)[C@@H](C)O)[C@@H](C)O)[C@@H](C)O)C(=O)O` [Pep‐1] (H-KDTWWDTWWTDWSQPKKKRKV-OH), for which, in assay [1], the “K a, binding constant of peptide to CX4” value is given as “(2.8 ± 0.2) × 10^6 M^−1”. The EC50 in assay [2] (setting [3]) stood at 32 ± 14 µM; in assay [2] (setting [4]), 4.5 ± 0.7 µM. Also, the “Y30µM, membrane activity, CX4/LCG assay” value in assay [2] was 0.67.
`CC[C@H](C)[C@H](NC(=O)[C@H](CCCCN)NC(=O)[C@H](CCCCN)NC(=O)[C@H](C)NC(=O)[C@H](CC(C)C)NC(=O)[C@H](C)NC(=O)[C@H](C)NC(=O)[C@H](CC(C)C)NC(=O)[C@H](C)NC(=O)[C@H](CCCCN)NC(=O)[C@H](CC(C)C)NC(=O)[C@H](CC(N)=O)NC(=O)[C@@H](NC(=O)[C@H](CCCCN)NC(=O)CNC(=O)[C@H](CC(C)C)NC(=O)[C@H](CC(C)C)NC(=O)[C@H](Cc1ccc(O)cc1)NC(=O)CNC(=O)[C@H](C)N)[C@@H](C)CC)C(=O)N[C@@H](CC(C)C)C(=O)O` [TP10]: the “Y30µM, membrane activity, CX4/LCG assay” value in assay [2] stood at 0.88. In assay [2] (setting [4]), the EC50 is 1.7 ± 0.6 µM.
